In article PMC4076210, “Discovery of Novel AKT Inhibitors with Enhanced Anti-Tumor Effects in Combination with the MEK Inhibitor” (PLoS ONE, 2014):
Read-outs that look alike come from different tables or passages of the source.

What was measured:
Type in all cases: biochemical
CDK9/cyclin T1(h) = target: T1, CDK9/cyclin T1(h) (Homo sapiens, UniProt P50750); assay: Kinase panel
T1 construct: purchased Millipore KinaseProfiler

FGFR1(V561M)(h) = target: T2, FGFR1(V561M)(h) (Homo sapiens, UniProt P11362, V561M); assay: Kinase panel
T2 construct: purchased Millipore KinaseProfiler
T2 sequence (P11362 22-822 V561M): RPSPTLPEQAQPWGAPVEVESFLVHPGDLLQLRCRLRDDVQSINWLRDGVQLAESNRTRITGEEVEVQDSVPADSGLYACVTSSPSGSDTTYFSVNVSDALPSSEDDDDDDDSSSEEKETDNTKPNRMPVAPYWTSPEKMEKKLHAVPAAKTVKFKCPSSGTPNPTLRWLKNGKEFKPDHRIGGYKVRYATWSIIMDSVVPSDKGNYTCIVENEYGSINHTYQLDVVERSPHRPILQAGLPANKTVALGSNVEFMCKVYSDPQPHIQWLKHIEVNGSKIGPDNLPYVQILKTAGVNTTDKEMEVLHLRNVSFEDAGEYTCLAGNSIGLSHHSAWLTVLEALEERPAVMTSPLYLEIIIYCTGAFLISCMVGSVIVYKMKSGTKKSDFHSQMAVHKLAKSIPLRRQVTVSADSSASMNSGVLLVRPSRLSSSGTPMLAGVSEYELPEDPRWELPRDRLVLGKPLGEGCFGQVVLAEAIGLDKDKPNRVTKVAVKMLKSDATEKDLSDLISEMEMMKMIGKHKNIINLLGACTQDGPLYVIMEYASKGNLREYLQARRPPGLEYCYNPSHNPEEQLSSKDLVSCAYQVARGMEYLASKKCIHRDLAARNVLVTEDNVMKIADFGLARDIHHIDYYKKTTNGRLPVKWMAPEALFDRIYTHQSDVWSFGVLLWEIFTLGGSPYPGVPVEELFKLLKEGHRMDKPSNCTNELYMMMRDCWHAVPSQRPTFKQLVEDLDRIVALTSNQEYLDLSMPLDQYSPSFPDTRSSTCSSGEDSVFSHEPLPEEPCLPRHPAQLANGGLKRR

MAPKAP-K2(h) = target: T3, MAPKAP-K2(h) (Homo sapiens, UniProt P49137); assay: Kinase panel
T3 construct: purchased Millipore KinaseProfiler
T3 sequence (P49137 whole entry): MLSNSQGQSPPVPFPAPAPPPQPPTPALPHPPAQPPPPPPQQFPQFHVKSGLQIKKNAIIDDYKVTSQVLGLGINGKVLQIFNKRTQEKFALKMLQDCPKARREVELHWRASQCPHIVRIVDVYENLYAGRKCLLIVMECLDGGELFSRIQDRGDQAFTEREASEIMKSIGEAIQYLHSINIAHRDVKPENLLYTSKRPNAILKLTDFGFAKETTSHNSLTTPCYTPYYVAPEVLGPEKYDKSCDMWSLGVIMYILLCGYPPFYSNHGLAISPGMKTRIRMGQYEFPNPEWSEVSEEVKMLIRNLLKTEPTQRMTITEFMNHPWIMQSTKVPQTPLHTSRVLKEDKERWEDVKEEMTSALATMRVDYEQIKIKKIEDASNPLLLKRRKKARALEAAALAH

ULK3(h) = target: T4, ULK3(h) (Homo sapiens, UniProt Q6PHR2); assay: Kinase panel
T4 construct: purchased Millipore KinaseProfiler
T4 sequence (Q6PHR2 1-472): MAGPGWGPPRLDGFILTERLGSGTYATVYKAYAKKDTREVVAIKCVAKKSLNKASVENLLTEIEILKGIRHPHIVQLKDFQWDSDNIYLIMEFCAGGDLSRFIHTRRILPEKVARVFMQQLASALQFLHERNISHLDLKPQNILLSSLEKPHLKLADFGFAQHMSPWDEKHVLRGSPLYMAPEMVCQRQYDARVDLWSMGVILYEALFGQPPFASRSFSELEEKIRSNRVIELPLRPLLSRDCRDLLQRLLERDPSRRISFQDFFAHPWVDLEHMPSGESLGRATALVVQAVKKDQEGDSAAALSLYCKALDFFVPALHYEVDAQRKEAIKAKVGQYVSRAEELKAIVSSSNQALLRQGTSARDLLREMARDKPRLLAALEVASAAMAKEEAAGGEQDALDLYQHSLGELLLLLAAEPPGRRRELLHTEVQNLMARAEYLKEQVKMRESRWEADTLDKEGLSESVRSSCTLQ

DMPK(h) = target: T5, DMPK(h) (Homo sapiens, UniProt Q09013); assay: Kinase panel
T5 construct: purchased Millipore KinaseProfiler
T5 sequence (Q09013 1-629): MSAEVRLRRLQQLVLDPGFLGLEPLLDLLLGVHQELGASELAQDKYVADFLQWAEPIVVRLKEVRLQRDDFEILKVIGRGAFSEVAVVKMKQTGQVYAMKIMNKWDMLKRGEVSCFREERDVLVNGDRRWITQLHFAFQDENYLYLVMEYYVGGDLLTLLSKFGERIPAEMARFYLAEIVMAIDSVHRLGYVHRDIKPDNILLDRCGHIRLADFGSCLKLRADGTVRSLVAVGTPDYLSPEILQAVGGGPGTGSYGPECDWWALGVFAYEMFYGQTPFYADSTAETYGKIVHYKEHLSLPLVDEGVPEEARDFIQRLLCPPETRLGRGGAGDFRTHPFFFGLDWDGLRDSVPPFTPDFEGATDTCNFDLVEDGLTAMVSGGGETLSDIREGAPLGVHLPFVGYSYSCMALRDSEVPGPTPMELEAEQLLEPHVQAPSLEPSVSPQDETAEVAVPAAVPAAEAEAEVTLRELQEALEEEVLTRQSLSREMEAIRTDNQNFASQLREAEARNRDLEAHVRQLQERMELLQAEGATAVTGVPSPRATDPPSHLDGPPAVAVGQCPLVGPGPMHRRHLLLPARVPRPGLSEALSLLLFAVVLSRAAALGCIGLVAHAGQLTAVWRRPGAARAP

Abl (M351T)(h) = target: T6, Abl (M351T)(h) (Homo sapiens, UniProt P00519, M351T); assay: Kinase panel
T6 construct: purchased Millipore KinaseProfiler

CDK2/cyclinE(h) = target: T7, CDK2/cyclinE(h) (Homo sapiens, UniProt P24941); assay: Kinase panel
T7 construct: purchased Millipore KinaseProfiler

Abl (Q252H) (h) = target: T8, Abl (Q252H) (h) (Homo sapiens, UniProt P00519, Q252H); assay: Kinase panel
T8 construct: purchased Millipore KinaseProfiler

ROCK = assay: Kinase IC50 assay
EphA5(h) = target: T9, EphA5(h) (Homo sapiens, UniProt P54756); assay: Kinase panel
T9 construct: purchased Millipore KinaseProfiler
T9 sequence (P54756 25-1037): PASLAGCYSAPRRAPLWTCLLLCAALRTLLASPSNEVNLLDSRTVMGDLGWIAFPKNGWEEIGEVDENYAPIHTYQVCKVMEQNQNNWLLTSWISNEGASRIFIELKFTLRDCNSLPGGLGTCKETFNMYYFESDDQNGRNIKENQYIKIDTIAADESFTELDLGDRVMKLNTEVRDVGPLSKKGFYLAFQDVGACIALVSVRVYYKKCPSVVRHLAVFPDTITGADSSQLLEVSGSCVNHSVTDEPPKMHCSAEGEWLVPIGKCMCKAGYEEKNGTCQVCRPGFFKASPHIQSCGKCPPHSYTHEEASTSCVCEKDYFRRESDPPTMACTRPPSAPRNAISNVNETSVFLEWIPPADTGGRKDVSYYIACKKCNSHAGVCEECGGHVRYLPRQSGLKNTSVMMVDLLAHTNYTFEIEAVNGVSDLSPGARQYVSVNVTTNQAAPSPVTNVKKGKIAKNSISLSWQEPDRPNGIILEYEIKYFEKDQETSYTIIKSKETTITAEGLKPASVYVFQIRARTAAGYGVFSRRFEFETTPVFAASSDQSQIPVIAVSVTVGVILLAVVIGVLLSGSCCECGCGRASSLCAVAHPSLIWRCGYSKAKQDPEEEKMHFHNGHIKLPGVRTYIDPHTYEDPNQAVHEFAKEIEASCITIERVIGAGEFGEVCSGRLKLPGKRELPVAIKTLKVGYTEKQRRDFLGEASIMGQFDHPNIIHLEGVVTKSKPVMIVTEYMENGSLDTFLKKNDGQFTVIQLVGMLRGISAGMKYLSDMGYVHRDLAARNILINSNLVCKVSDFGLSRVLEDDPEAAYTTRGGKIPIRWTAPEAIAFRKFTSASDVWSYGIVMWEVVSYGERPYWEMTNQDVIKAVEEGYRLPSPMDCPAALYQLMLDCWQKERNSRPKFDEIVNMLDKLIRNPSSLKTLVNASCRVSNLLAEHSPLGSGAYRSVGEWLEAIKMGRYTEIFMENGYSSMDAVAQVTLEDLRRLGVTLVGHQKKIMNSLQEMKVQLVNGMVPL

P70S6K = P70S6K (Homo sapiens, UniProt P23443); assay: Kinase IC50 assay
ErbB4(h) = target: T10, ErbB4(h) (Homo sapiens, UniProt Q15303); assay: Kinase panel
T10 construct: purchased Millipore KinaseProfiler
T10 sequence (Q15303 26-1308): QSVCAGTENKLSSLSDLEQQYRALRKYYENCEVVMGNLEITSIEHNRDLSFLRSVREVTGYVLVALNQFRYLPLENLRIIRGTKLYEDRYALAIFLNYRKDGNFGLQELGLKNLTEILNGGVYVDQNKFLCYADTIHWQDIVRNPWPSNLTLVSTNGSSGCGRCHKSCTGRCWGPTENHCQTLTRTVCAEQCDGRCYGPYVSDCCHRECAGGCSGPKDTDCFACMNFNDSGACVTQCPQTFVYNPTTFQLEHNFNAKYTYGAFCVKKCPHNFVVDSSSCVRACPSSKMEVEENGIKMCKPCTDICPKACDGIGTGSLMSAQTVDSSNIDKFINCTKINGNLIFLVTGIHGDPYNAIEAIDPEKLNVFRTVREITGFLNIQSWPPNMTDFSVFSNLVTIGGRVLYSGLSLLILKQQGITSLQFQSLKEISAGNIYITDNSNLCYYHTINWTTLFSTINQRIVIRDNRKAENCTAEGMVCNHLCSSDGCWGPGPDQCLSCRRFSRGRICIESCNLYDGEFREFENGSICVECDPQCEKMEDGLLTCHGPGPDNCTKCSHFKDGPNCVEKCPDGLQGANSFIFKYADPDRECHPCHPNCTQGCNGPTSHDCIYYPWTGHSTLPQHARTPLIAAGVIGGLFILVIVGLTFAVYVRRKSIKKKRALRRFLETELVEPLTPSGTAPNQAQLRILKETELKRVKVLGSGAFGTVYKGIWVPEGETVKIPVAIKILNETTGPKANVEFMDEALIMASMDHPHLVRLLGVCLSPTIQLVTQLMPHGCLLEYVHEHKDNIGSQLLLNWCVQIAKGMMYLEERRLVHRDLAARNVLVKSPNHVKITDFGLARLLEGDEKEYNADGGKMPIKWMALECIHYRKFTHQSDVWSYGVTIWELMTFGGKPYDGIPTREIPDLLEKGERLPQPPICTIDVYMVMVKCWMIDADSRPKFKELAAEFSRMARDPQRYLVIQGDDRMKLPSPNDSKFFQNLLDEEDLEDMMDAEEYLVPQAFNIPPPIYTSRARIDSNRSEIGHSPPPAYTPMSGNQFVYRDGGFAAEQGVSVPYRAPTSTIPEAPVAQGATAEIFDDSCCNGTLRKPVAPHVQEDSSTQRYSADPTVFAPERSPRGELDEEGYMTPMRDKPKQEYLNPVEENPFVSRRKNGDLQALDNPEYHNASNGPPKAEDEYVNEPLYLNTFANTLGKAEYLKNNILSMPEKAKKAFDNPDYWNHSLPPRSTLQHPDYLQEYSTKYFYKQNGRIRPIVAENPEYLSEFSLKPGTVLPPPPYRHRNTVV

MST1(h) = target: T11, MST1(h) (Homo sapiens, UniProt Q13043); assay: Kinase panel
T11 construct: purchased Millipore KinaseProfiler
T11 sequence (Q13043 1-487): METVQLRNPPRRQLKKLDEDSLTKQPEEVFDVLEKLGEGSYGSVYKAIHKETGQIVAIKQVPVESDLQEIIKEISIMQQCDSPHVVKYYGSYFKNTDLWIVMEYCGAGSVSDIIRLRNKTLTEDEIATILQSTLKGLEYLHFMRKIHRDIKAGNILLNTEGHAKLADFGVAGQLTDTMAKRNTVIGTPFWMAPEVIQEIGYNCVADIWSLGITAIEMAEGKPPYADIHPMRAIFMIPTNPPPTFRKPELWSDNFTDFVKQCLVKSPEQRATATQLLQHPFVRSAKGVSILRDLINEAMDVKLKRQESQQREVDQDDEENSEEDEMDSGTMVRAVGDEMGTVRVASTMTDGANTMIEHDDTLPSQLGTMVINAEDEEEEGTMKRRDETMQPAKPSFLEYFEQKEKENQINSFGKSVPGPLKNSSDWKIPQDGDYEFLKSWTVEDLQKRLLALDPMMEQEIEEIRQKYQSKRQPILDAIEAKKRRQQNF

Abl(T315I)(h) = target: T12, Abl(T315I)(h) (Homo sapiens, UniProt P00519, T315I); assay: Kinase panel
T12 construct: purchased Millipore KinaseProfiler

PKCθ(h) = target: T13, PKCθ(h) (Homo sapiens, UniProt Q04759); assay: Kinase panel
T13 construct: purchased Millipore KinaseProfiler
T13 sequence (Q04759 whole entry): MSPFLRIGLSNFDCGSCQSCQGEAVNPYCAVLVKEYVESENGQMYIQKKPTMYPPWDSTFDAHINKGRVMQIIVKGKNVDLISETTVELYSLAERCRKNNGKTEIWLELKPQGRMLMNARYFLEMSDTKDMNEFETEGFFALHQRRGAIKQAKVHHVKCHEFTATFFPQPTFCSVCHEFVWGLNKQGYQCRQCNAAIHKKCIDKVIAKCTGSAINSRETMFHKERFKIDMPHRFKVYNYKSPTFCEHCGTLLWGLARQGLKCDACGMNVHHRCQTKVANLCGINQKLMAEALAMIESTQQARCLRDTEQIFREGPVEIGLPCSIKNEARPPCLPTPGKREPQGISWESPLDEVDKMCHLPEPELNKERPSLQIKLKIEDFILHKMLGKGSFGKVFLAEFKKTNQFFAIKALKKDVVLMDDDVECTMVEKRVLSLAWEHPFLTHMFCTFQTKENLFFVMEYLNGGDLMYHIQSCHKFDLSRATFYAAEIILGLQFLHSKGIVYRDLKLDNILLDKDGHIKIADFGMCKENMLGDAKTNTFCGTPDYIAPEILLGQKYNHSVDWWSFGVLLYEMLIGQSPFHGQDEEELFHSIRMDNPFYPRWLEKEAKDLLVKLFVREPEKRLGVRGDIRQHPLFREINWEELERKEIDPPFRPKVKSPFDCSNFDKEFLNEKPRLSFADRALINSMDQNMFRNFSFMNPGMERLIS

CK1δ(h) = target: T14, CK1δ(h) (Homo sapiens, UniProt P48730); assay: Kinase panel
T14 construct: purchased Millipore KinaseProfiler
T14 sequence (P48730 whole entry): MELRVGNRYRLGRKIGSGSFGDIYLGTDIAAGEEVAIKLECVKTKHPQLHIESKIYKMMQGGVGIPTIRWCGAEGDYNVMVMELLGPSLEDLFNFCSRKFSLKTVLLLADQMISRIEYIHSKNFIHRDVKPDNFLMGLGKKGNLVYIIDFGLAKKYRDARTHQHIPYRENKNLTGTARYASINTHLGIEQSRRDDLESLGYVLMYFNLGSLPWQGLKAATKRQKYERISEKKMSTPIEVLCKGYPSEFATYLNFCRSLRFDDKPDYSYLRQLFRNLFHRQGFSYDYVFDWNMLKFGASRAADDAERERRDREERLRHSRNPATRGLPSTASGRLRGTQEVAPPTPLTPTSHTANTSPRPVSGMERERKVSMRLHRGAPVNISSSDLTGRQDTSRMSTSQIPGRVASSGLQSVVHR

Cn1ncc(Cl)c1-c1cc(C(=O)N[C@H](CN)Cc2cccc(F)c2)sc1Cl [GSK2110183]
inhibition at 0.5 µM (CDK9/cyclin T1(h)): 0%
inhibition at 10 µM (CDK9/cyclin T1(h)): 48%
inhibition at 0.5 µM (FGFR1(V561M)(h)): -4%
inhibition at 10 µM (FGFR1(V561M)(h)): 16%
inhibition at 0.5 µM (MAPKAP-K2(h)): -11%
inhibition at 10 µM (MAPKAP-K2(h)): 4%
inhibition at 0.5 µM (ULK3(h)): 20%
inhibition at 10 µM (ULK3(h)): 72%
inhibition at 0.5 µM (DMPK(h)): -8%
inhibition at 10 µM (DMPK(h)): 1%
inhibition at 0.5 µM (Abl (M351T)(h)): 0%
inhibition at 10 µM (Abl (M351T)(h)): 24%
inhibition at 0.5 µM (CDK2/cyclinE(h)): 3%
inhibition at 10 µM (CDK2/cyclinE(h)): 12%
inhibition at 0.5 µM (Abl (Q252H) (h)): 6%
inhibition at 10 µM (Abl (Q252H) (h)): 11%
IC50 (ROCK): 100 nM
inhibition at 0.5 µM (EphA5(h)): 5%
inhibition at 10 µM (EphA5(h)): 9%
IC50 (P70S6K): 251 nM
inhibition at 0.5 µM (ErbB4(h)): -4%
inhibition at 10 µM (ErbB4(h)): 4%
inhibition at 0.5 µM (MST1(h)): -2%
inhibition at 10 µM (MST1(h)): 19%
inhibition at 0.5 µM (Abl(T315I)(h)): -1%
inhibition at 10 µM (Abl(T315I)(h)): 6%
inhibition at 0.5 µM (PKCθ(h)): 62%
inhibition at 10 µM (PKCθ(h)): 94%
inhibition at 0.5 µM (CK1δ(h)): -1%
inhibition at 10 µM (CK1δ(h)): 49%

Cn1ncc(Cl)c1-c1cc(C(=O)N[C@H](CN)Cc2ccc(F)c(F)c2)oc1Cl [GSK2141795]
inhibition at 0.5 µM (CDK9/cyclin T1(h); 0.5 µM, read-out: % Inhibition): 15%
inhibition at 10 µM (CDK9/cyclin T1(h); 10 µM, read-out: % Inhibition): 72%
inhibition at 0.5 µM (FGFR1(V561M)(h); 0.5 µM, read-out: % Inhibition): 15%
inhibition at 10 µM (FGFR1(V561M)(h); 10 µM, read-out: % Inhibition): 36%
inhibition at 0.5 µM (MAPKAP-K2(h); 0.5 µM, read-out: % Inhibition): -6%
inhibition at 10 µM (MAPKAP-K2(h); 10 µM, read-out: % Inhibition): -12%
inhibition at 0.5 µM (ULK3(h); 0.5 µM, read-out: % Inhibition): 0%
inhibition at 10 µM (ULK3(h); 10 µM, read-out: % Inhibition): 49%
inhibition at 0.5 µM (DMPK(h); 0.5 µM, read-out: % Inhibition): -12%
inhibition at 10 µM (DMPK(h); 10 µM, read-out: % Inhibition): -5%
inhibition at 0.5 µM (Abl (M351T)(h); 0.5 µM, read-out: % Inhibition): -7%
inhibition at 10 µM (Abl (M351T)(h); 10 µM, read-out: % Inhibition): -3%
inhibition at 0.5 µM (CDK2/cyclinE(h); 0.5 µM, read-out: % Inhibition): -2%
inhibition at 10 µM (CDK2/cyclinE(h); 10 µM, read-out: % Inhibition): 29%
inhibition at 0.5 µM (Abl (Q252H) (h); 0.5 µM, read-out: % Inhibition): -1%
inhibition at 10 µM (Abl (Q252H) (h); 10 µM, read-out: % Inhibition): 3%
IC50 (ROCK): 126 nM
inhibition at 0.5 µM (EphA5(h); 0.5 µM, read-out: % Inhibition): -6%
inhibition at 10 µM (EphA5(h); 10 µM, read-out: % Inhibition): 10%
IC50 (P70S6K): 50 nM
inhibition at 0.5 µM (ErbB4(h); 0.5 µM, read-out: % Inhibition): -11%
inhibition at 10 µM (ErbB4(h); 10 µM, read-out: % Inhibition): -5%
inhibition at 0.5 µM (MST1(h); 0.5 µM, read-out: % Inhibition): -10%
inhibition at 10 µM (MST1(h); 10 µM, read-out: % Inhibition): 25%
inhibition at 0.5 µM (Abl(T315I)(h); 0.5 µM, read-out: % Inhibition): -2%
inhibition at 10 µM (Abl(T315I)(h); 10 µM, read-out: % Inhibition): -2%
inhibition at 0.5 µM (PKCθ(h); 0.5 µM, read-out: % Inhibition): 82%
inhibition at 10 µM (PKCθ(h); 10 µM, read-out: % Inhibition): 94%
inhibition at 0.5 µM (CK1δ(h); 0.5 µM, read-out: % Inhibition): -2%
inhibition at 10 µM (CK1δ(h); 10 µM, read-out: % Inhibition): 63%
